Source: PubChem BioAssay (NCI)
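All cell lines were grown in 96-well plates and treated with compound for 48 hours. TGI marks complete inhibition of growth.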

Tests used:
Assay in all cases: DTP human tumour cell line panel, 48 h
ACHN renal = test system: ACHN renal
RPMI-8226 leukemia = test system: RPMI-8226 leukemia
HS 578T breast = test system: HS 578T breast
SF-295 CNS = test system: SF-295 CNS
EKVX NSCLC = test system: EKVX NSCLC
HCT-15 colon = test system: HCT-15 colon
HCT-116 colon = test system: HCT-116 colon
HOP-92 NSCLC = test system: HOP-92 NSCLC
PC-3 prostate = test system: PC-3 prostate
MDA-MB-231 breast = test system: MDA-MB-231 breast

## CCOC(=O)C(C(=O)OCC)=C1NC2(c3ccccc3Nc3ccc(C)cc32)C(C(=O)OC)S1 (stereo not drawn)
ACHN renal
  TGI: > 100 µM
RPMI-8226 leukemia
  TGI: > 100 µM
HS 578T breast
  TGI: 69.2 µM
SF-295 CNS
  TGI: > 100 µM
EKVX NSCLC
  TGI: 80.9 µM
HCT-15 colon
  TGI: > 100 µM
HCT-116 colon
  TGI: > 100 µM
HOP-92 NSCLC
  TGI: 44.4 µM
PC-3 prostate
  TGI: > 100 µM

## CC(C)OC(=O)[C@@H](O)[C@H](CO)C1=CC([Si](C)(C)c2ccccc2)=CON1
ACHN renal
  TGI: > 100 µM
RPMI-8226 leukemia
  TGI: > 100 µM
SF-295 CNS
  TGI: > 100 µM
MDA-MB-231 breast
  TGI: > 100 µM
EKVX NSCLC
  TGI: > 100 µM
HCT-15 colon
  TGI: > 100 µM
HCT-116 colon
  TGI: > 100 µM
PC-3 prostate
  TGI: > 100 µM

## CCN(CC)C(=O)N1CN(c2ccccc2)C2(CCN(CCCSc3ccc(F)cc3)CC2)C1=O
ACHN renal
  TGI: 15.8 µM
RPMI-8226 leukemia
  TGI: 41.6 µM
HS 578T breast
  TGI: 16.6 µM
SF-295 CNS
  TGI: 25.1 µM
EKVX NSCLC
  TGI: 33.6 µM
HCT-15 colon
  TGI: 26.4 µM
HCT-116 colon
  TGI: 12.9 µM
PC-3 prostate
  TGI: 36.5 µM

## CCN(CC)CCCC(C)NC(=O)c1ccc2c(c1)C(=O)c1ccccc1C2=O (stereo not drawn)
ACHN renal
  TGI: 38.2 µM
RPMI-8226 leukemia
  TGI: 52.4 µM
SF-295 CNS
  TGI: 45.8 µM
EKVX NSCLC
  TGI: 55.8 µM
HCT-15 colon
  TGI: 40 µM
HCT-116 colon
  TGI: 51.7 µM
HOP-92 NSCLC
  TGI: 63.7 µM

## Cc1ccc(S(=O)(=O)NC(=O)NC(Cc2ccc(O)c(O)c2)C(=O)O)cc1 (stereo not drawn)
ACHN renal
  TGI: > 100 µM
RPMI-8226 leukemia
  TGI: > 100 µM
SF-295 CNS
  TGI: > 100 µM
MDA-MB-231 breast
  TGI: > 100 µM
EKVX NSCLC
  TGI: > 100 µM
HCT-15 colon
  TGI: > 100 µM
HCT-116 colon
  TGI: > 100 µM
HOP-92 NSCLC
  TGI: > 100 µM
PC-3 prostate
  TGI: > 100 µM

## O=C1CCCC2=C1CC1=C(CCCC1=O)N2c1ccccc1
ACHN renal
  TGI: > 100 µM
RPMI-8226 leukemia
  TGI: > 100 µM
HS 578T breast
  TGI: > 100 µM
EKVX NSCLC
  TGI: > 100 µM
HCT-15 colon
  TGI: > 100 µM
HOP-92 NSCLC
  TGI: > 100 µM
PC-3 prostate
  TGI: > 100 µM

## CC(C)C(=O)/C=C/c1ccc(Cl)c(Cl)c1
ACHN renal
  TGI: 32.7 µM
RPMI-8226 leukemia
  TGI: 87 µM
SF-295 CNS
  TGI: 29.4 µM
EKVX NSCLC
  TGI: 51.4 µM
HCT-116 colon
  TGI: 15.2 µM
HOP-92 NSCLC
  TGI: 34.7 µM

## CC(C)(C)c1ccc(C(C)(C)C)c(N2C(=O)C3ON=C(c4ccc([N+](=O)[O-])cc4)C3C2=O)c1 (stereo not drawn)
ACHN renal
  TGI: > 25 µM
RPMI-8226 leukemia
  TGI: > 25 µM
HS 578T breast
  TGI: > 25 µM
SF-295 CNS
  TGI: > 25 µM
EKVX NSCLC
  TGI: > 25 µM
HCT-15 colon
  TGI: > 25 µM
HCT-116 colon
  TGI: > 25 µM
HOP-92 NSCLC
  TGI: > 25 µM

## CCCCCCC(C)OC(=O)/C=C(\CC(=O)OC(C)CCCCCC)C(=O)OC(C)CCCCCC (stereo not drawn)
ACHN renal
  TGI: > 100 µM
RPMI-8226 leukemia
  TGI: > 100 µM
SF-295 CNS
  TGI: > 100 µM
EKVX NSCLC
  TGI: > 100 µM
HCT-15 colon
  TGI: > 100 µM
HCT-116 colon
  TGI: > 100 µM
HOP-92 NSCLC
  TGI: > 100 µM

## CC(C)C1CC[C@H](C)C[C@@H]1OC(=O)C(C(=O)O[C@H]1C[C@@H](C)CCC1C(C)C)C(O)[C@@H]1OC(C)(C)O[C@H]1C1COC(C)(C)O1 (stereo partly drawn)
ACHN renal
  TGI: 32 µM
RPMI-8226 leukemia
  TGI: 44.6 µM
HS 578T breast
  TGI: 36.5 µM
SF-295 CNS
  TGI: 32.6 µM
MDA-MB-231 breast
  TGI: 36.2 µM
EKVX NSCLC
  TGI: 41.8 µM
HCT-15 colon
  TGI: 44.3 µM
HCT-116 colon
  TGI: 23.9 µM

## O=C1c2ccccc2C(=O)c2c(O)ccc(O)c21
ACHN renal
  TGI: > 100 µM
RPMI-8226 leukemia
  TGI: > 100 µM
SF-295 CNS
  TGI: > 100 µM
EKVX NSCLC
  TGI: > 100 µM
HCT-15 colon
  TGI: > 100 µM
HCT-116 colon
  TGI: > 100 µM
HOP-92 NSCLC
  TGI: > 100 µM

## CC(=O)NC(Cc1ccc(OP(=O)(OCc2ccc([N+](=O)[O-])o2)N(C)CCCCCl)cc1)C(=O)NC(C)c1ccc(OCC2CCCCC2)c(C(N)=O)c1 (stereo not drawn)
ACHN renal
  TGI: 33.4 µM
RPMI-8226 leukemia
  TGI: 3.96 µM
HS 578T breast
  TGI: 4.65 µM
SF-295 CNS
  TGI: 16.9 µM
MDA-MB-231 breast
  TGI: 4.79 µM
HCT-15 colon
  TGI: > 100 µM
HCT-116 colon
  TGI: 5.3 µM
PC-3 prostate
  TGI: 10.5 µM

## c1ccc2c(c1)CC1COc3ccccc3C1O2 (stereo not drawn)
ACHN renal
  TGI: > 100 µM
RPMI-8226 leukemia
  TGI: > 100 µM
SF-295 CNS
  TGI: > 100 µM
MDA-MB-231 breast
  TGI: > 100 µM
EKVX NSCLC
  TGI: > 100 µM
HCT-15 colon
  TGI: > 100 µM
HCT-116 colon
  TGI: > 100 µM
HOP-92 NSCLC
  TGI: > 100 µM
PC-3 prostate
  TGI: > 100 µM

## CC1C(=O)O[C@H]2C1CC[C@@]1(C)[C@H](O)CC[C@@]13C[C@]2(O)OO3 (stereo partly drawn)
ACHN renal
  TGI: > 100 µM
RPMI-8226 leukemia
  TGI: > 100 µM
SF-295 CNS
  TGI: > 100 µM
HCT-15 colon
  TGI: > 100 µM
HCT-116 colon
  TGI: > 100 µM
HOP-92 NSCLC
  TGI: > 100 µM

## CCOP(=O)(OCC)C1=NC=CC=CC1n1c(-c2ccccc2)nn(CC)c1=O (stereo not drawn)
ACHN renal
  TGI: > 100 µM
RPMI-8226 leukemia
  TGI: > 100 µM
SF-295 CNS
  TGI: > 100 µM
EKVX NSCLC
  TGI: > 100 µM
HCT-15 colon
  TGI: > 100 µM
HCT-116 colon
  TGI: > 100 µM
HOP-92 NSCLC
  TGI: > 100 µM

## CC(NC(C#N)CC12CC3CC(CC(C3)C1)C2)c1ccccc1 (stereo not drawn)
ACHN renal
  TGI: > 100 µM
RPMI-8226 leukemia
  TGI: 44 µM
SF-295 CNS
  TGI: > 100 µM
MDA-MB-231 breast
  TGI: > 100 µM
EKVX NSCLC
  TGI: > 100 µM
HCT-15 colon
  TGI: > 100 µM
HCT-116 colon
  TGI: > 100 µM
HOP-92 NSCLC
  TGI: 31.5 µM
PC-3 prostate
  TGI: > 100 µM

## O=C1ON=C2C3CC4CC12CC1(C3)C(=O)ON=C41
ACHN renal
  TGI: > 100 µM
RPMI-8226 leukemia
  TGI: > 100 µM
SF-295 CNS
  TGI: > 100 µM
MDA-MB-231 breast
  TGI: > 100 µM
EKVX NSCLC
  TGI: > 100 µM
HCT-116 colon
  TGI: > 100 µM
HOP-92 NSCLC
  TGI: > 100 µM
PC-3 prostate
  TGI: > 100 µM

## COC(=O)c1ccccc1C1CN=NC12Cc1cccc(C)c1C2=O (stereo not drawn)
ACHN renal
  TGI: > 100 µM
RPMI-8226 leukemia
  TGI: > 100 µM
HS 578T breast
  TGI: > 100 µM
SF-295 CNS
  TGI: > 100 µM
MDA-MB-231 breast
  TGI: > 100 µM
EKVX NSCLC
  TGI: > 100 µM
HCT-15 colon
  TGI: > 100 µM
HCT-116 colon
  TGI: > 100 µM
HOP-92 NSCLC
  TGI: > 100 µM

## CS(=O)(=O)OCCCOS(C)(=O)=O
ACHN renal
  TGI: > 100 µM
RPMI-8226 leukemia
  TGI: > 100 µM
SF-295 CNS
  TGI: > 100 µM
EKVX NSCLC
  TGI: > 100 µM
HCT-15 colon
  TGI: > 100 µM
HCT-116 colon
  TGI: > 100 µM
HOP-92 NSCLC
  TGI: > 100 µM

## C=C1C(=O)O[C@@H]2[C@H](O)[C@@H](C)[C@@H]3C=CC(=O)[C@@]3(C)[C@H](OC(=O)C=C(C)C)[C@H]12
RPMI-8226 leukemia
  TGI: 0.975 µM
SF-295 CNS
  TGI: 7.27 µM
EKVX NSCLC
  TGI: 5.5 µM
HCT-15 colon
  TGI: 0.667 µM
HCT-116 colon
  TGI: 1.72 µM
HOP-92 NSCLC
  TGI: 2.21 µM
